Assay results: patent US20100022495A1, “MODULATING ENDOPLASMIC RETICULUM STRESS IN THE TREATMENT OF TUBEROUS SCLEROSIS” (PRESIDENT AND FELLOWS OF HARVARD COLLEGE, priority 2005, published 2010)

Legend:
TSC2−/− MEFs = assay: ER stress parameters (western blot, XBP-1 rt-PCR) in TSC2-deficient MEFs; type: cell-based, mouse; conditions: for splicing of XBP-1 mRNA (UPR activation): thapsigargin 0.05 nM, tunicamycin 0.002 ug/ml, compared with controls
Protocol: (§1) All of the mouse embryonic fibroblast (MEF) cell lines (TSC1+/+, TSC1−/−, TSC2+/+, TSC2−/−) were cultured in medium containing DMEM-H+10% fetal bovine serum (FBS)+1% PS (penicillin-streptomycin complex) in 175 cm^2 cell culture flasks using standard methods. Upon reaching 90% confluency, cells were split into 10 cm dishes at 30-40% confluency and grown again in DMEM-H+10% FBS+1% PS to about 60% confluency for experiments.
At the start of the experiment, cells were placed in fresh media and treated with 200 nM Rapamycin or 10 mM […], and DMSO or PBS as respective vehicle controls (PBA was dissolved in PBS, and rapamycin was dissolved in DMSO), for 19 hours. As a vehicle control, DMSO was not present at a sufficiently high concentration to act as a chemical chaperone. Cells were then washed 3 times with serum-free DMEM-H+1% PS and incubated for 5 hours in serum free DMEM-H+1% PS in the presence of rapamycin or PBA and their appropriate vehicle controls. At the end of the incubation, the media was removed and dishes were immediately frozen in liquid nitrogen and stored at −80° C. untile further use.
(§2) Protein extracts were prepared with a lysis buffer containing 25 mM Tris-HCl (pH 7.4), 2 mM Na3VO4, 10 mM NaF, 10 mM Na4P2O7, 1 mM EGTA, 1 mM EDTA, 1% NP-40, 5 ug/ml leupeptin, 5 ug/ml aprotinin, 10 nM okadaic acid, and 1 mM phenylmethylsulfonyl fluoride (PMSF). Immunoprecipitations and immunoblotting experiments were performed with 200 and 75 μg total protein, respectively without any freeze-thaw cycles from individual aliquots.
(§3) Protein concentrations were normalized and the desired amounts were aliquotted into tubes. Laemelli buffer was added to a 1× final concentration and the samples were boiled for five minutes. After boiling, the samples were incubated at room temperature for 20 minutes. The boiled, cooled lysates were centrifuged at 14,000 rpm and subject to SDS-PAGE. Proteins were transferred to PVDF membranes for western blotting.
(§4) Membrane blotting was performed using standard techniques and reagents. Appropriate modification depending on the antibodies used and other considerations, is within the ability of those skilled in the art. Membranes were blocked in 10% blocking reagent for 1 hour prior to exposure to primary antibody in tris-buffered saline-tween (TBST), pH 7.4, overnight at 4° C. Following overnight incubation, membranes were washed in TBST for 3×20 minutes and placed into secondary antibody for 1 hour. Subsequently the membrane was washed 3×20 minutes in TBST. After the washing period, the membranes were developed by using a chemiluminescence kit and the bands were visualized using a phospho imager system (VersaDoc Imaging System, Model 3000).
(§5) Phosphorylation state of the ER stress markers PERK and s6K1 were analyzed in both wild type (TSC2+/+ and TSC1+/+) and TSC-deficient (TSC2−/− and TSC1−/−) MEFs. Cells were cultured and treated with DMSO (vehicle control) or rapamycin as discussed above. Rapamycin inhibits signaling through the mTOR pathway which is required for ER stress response. The DMSO was present at too low of a concentration to act as a chemical chaperone. Cells were harvested and protein and RNA were isolated. Protein samples were resolved by SDS-PAGE and proteins were transferred to PVDF membrane for western blotting as described above. RNA was subjected to rt-PCR using probes designed to mouse XBP-1 to detect splicing.
(§6) Phosphorylation state of the ER stress markers PERK, eIF2α cJun, JNK and s6K1, and the level of spliced XBP-1 were analyzed in both wild type and TSC-deficient MEFs. Cells were treated with PBS (vehicle control) or PBA (chemical chaperone) as discussed above. Cells were harvested, samples were resolved by SDS-PAGE, proteins were transferred to PVDF membrane, and western blots were performed as described above.

TSC1−/− MEFs = assay: ER stress parameters (western blot, XBP-1 rt-PCR) in TSC1-deficient MEFs; type: cell-based, mouse; conditions: for splicing of XBP-1 mRNA (UPR activation): thapsigargin 0.05 nM, tunicamycin 0.002 ug/ml, compared with controls
Protocol: as §1
[…] As a vehicle control, DMSO was not present at a sufficiently high concentration to act as a chemical chaperone. […] At the end of the incubation, the media was removed and dishes were immediately frozen in liquid nitrogen and stored at −80° C. untile further use.
as §2, §3, §4, §5, §6

TSC-1−/− cells = assay: Insulin signaling (IRS-1, IRS-2, Akt western blot) in TSC-1−/− cells; type: cell-based, mouse; conditions: PBA treatment
Protocol: (§7) For insulin signaling experiments, cells were treated exactly the same way as for analysis of ER stress parameters. At the end of a 5-hour starvation period, cells were either stimulated with PBS or with 100 nM insulin for 5 minutes for analysis of ISR phosphorylation analysis, or 15 minutes for Akt phosphorylation analysis. Samples were harvested and subjected to western blotting as described above. Blots were probed with primary antibodies targeted to total and phosphorylated insulin receptor substrate (IRS)-1, and -2, and Akt, a downstream target in the insulin signaling pathway.

TSC2−/− cells = assay: Apoptosis (Cell Death Elisa, caspase 3 or PARP cleavage) in TSC2−/− cells; type: cell-based, mouse
ER stress = conditions: western blot after treatment of the animal with the compound; cited from earlier work
[1] = system: c-Jun Amino Terminal Kinase-1 (JNK-1); assay: c-Jun Amino Terminal Kinase (JNK) kinase assay on immunoprecipitates from TSC2-deficient cells; type: cell-based, mouse; conditions: PBA 10 mM
Protocol: Cell lysates were prepared as above, and subsequently incubated with primary antibody and Sepharose beads, either Protein A Sepharose or Protein G Sepharose depending on the antibody. The samples were incubated on a rotating apparatus overnight at 4° C. Subsequently, beads were centrifuged at 14,000 rpm and washed 3 times with cold lysis buffer. If immunoprecipitates were to be subjected to SDS-PAGE, they were boiled in 2× Laemmli buffer for 5 minutes prior to loading.
Following immunoprecipitation the beads were washed 3 times with lysis buffer as described above, and two times with JNK kinase assay buffer (25 mM HEPES (pH: 7.4), 20 mM MgCl2, 20 mM β-glycerophosphate, 0.5 mM EGTA, 0.5 mM NaF, 0.5 mM NaOrthoVanadate, 1 mM PMSF) for equilibration. After washing with kinase buffer, the beads were incubated in 17 μl kinase buffer, 1 μl [^32P]γ-ATP and 4 μg of c-Jun fusion protein at 30° C. for 20 minutes. The reaction was terminated by the addition of Laemmli buffer. The samples were resolved by SDS-page and transferred to a PVDF membrane as described above. Phosphorylated c-Jun bands were visualized prior to western blotting.
Phosphorylation state of the ER stress markers PERK, eIF2α cJun, JNK and s6K1, and the level of spliced XBP-1 were analyzed in both wild type and TSC-deficient MEFs. Cells were treated with PBS (vehicle control) or PBA (chemical chaperone) as discussed above. […]

TSC-2−/− cells = assay: Insulin signaling (IRS-1, IRS-2, Akt western blot) in TSC-2−/− cells; type: cell-based, mouse; conditions: PBA treatment
Protocol: as §7

IRS-1 [2] = assay: Degradation pattern of IRS-1 after cycloheximide addition in TSC-1 deficient cells; type: cell-based, mouse; conditions: pretreatment with PBA (an hour without PBA)
Text: (§8) It has been previously shown that when ER stress is induced acutely, IRS-1 is highly phosphorylated at serine 307 residue, and insulin induced tyrosine phosphorylation is blocked. […] Eight hour stimulation with thapsigargin in the presence of MG132 leads to ubiquitination of IRS-1. […] As mentioned above, IRS-1 degradation was increased in both TSC1- and TSC2-deficient cells. […] IRS-1 protein levels became totally undetectable in an hour after cycloheximide addition, whereas pretreatment with PBA extends this period up to 4 hours.

TSC1−/− cells = assay: Apoptosis (Cell Death Elisa, caspase 3 or PARP cleavage) in TSC1−/− cells; type: cell-based, mouse
Protocol: (§9) ER stress can cause apoptosis. […] Wild-type and TSC1−/− cells were plated in 96 well plates in DMEM-H+10% FBS+1% PS at 40-50% confluence. Upon reaching about 80% confluence, the cells were washed with DMEM-H without FBS and treated with the ER stress inducer thapsigargin (10 nM) or DMSO (vehicle control) for 6 hours in serum-free DMEM-H+1% PS. Apoptosis was analyzed by using Cell Death Elisa Kit using the manufacturer's instructions, or by detection of caspase 3 or PARP cleavage.

wild type control cells = assay: UPR activation by low doses of ER stress inducers in wild type control cells; type: cell-based, mouse; conditions: thapsigargin 0.05 nM, tunicamycin 0.002 ug/ml
Protocol: as §1
TSC-deficient cells and their corresponding control cells were exposed to extremely low doses of thapsigargin (0.05 nM) and tunicamycin (0.002 ug/ml) at which the UPR is not activated in wild type control cells. TSC1- and TSC2-deficient cells responded to the ER stress inducers by activating the UPR as determined by increased splicing of XBP-1 mRNA when compared with their controls.

[3] = system: kidney adenomas and liver hemangiomas of TSC-2+/− mice; type: in vivo; conditions: thapsigargin 1 mg/kg
Protocol: To address this, we have used around ˜1 year old TSC-2+/−mice for thapsigargin (1 mg/kg) or vehicle treatment. After 7 days of thapsigargin administration we have analyzed the apoptosis with tunnel assay in the kidney adenomas. […] Increased tunnel positivity in liver hemangiomas after thapsigargin treatment was also observed, but lack of liver hemangiomas in vehicle treated group, limits the conclusions that can be drawn from the study.

IRS-1 [4] = assay: IRS-1 degradation and ubiquitination during ER stress induced by thapsigargin or tunicamycin; type: cell-based; conditions: for degradation of IRS-1: prolonged exposure to ER stress
Text: as §8

Wild-type control cells = assay: Apoptosis in wild-type control cells; type: cell-based, mouse; conditions: thapsigargin, same time period (6 hours)
Protocol: as §9

[5] = TSC2-deficient MEFs, western blot, rapamycin 200 nM, 12 hours, PBA 10 mM
[6] = TSC1-deficient MEFs, western blot, rapamycin 200 nM, 12 hours, PBA 10 mM
[7] = 8 hours in the presence of 26S proteosome inhibitor epoxomicin

## C[C@@H]1C[C@@H]([C@H](O)CC2CC(=O)NC(=O)C2)C(=O)[C@@H](C)C1 [Cyclohexamide]
TSC2−/− MEFs; [5]
  PERK phosphorylation: decrease
TSC1−/− MEFs; [6]
  PERK phosphorylation: decrease

## O=C(O)CCCc1ccccc1 [PBA, 4-phenyl butyric acid]
TSC2−/− MEFs; [5]
  PERK phosphorylation: blocked
  S6 phosphorylation: significant decrease
TSC2−/− MEFs; TSC2-deficient cells, PBA 10 mM
  eIF2α phosphorylation: blocked
TSC2−/− MEFs; TSC-2 deficient cells glucose starved in the presence of 4-PBA
  XBP-1 mRNA splicing after glucose starvation: significantly reduced
TSC-1−/− cells; 100 nM insulin 5 minutes
  insulin induced IRS-1 tyrosine phosphorylation: improved
  insulin induced IRS-2 tyrosine phosphorylation: improved
TSC-1−/− cells; 100 nM insulin 15 minutes
  insulin induced Akt phosphorylation: improved
TSC-1−/− cells
  protein levels of IRS-1: increase
TSC2−/− cells; TSC2-deficient cells, treatment with chemical chaperone
  rescue from ER stress inducer sensitivity: at least partially rescued
TSC2−/− cells; TSC-2−/− cells, 4-PBA treatment
  Glucose starvation induced PARP and caspase-3 cleavage: blocked
ER stress
  ER stress in animals (phosphorylation of PERK, activation of JNK, phosphorylation of IRE-1α): regulate ER stress
[1]
  c-Jun Amino Terminal Kinase-1 (JNK-1) activity: suppressed
TSC1−/− MEFs; [6]
  PERK phosphorylation: block
  S6 phosphorylation: significant decrease
  s6K1 phosphorylation: significant decrease
TSC1−/− MEFs; TSC1-deficient cells, PBA 10 mM
  eIF2α phosphorylation: substantial decrease
TSC1−/− MEFs; TSC-1 deficient cells glucose starved in the presence of 4-PBA
  XBP-1 mRNA splicing after glucose starvation: significantly reduced
TSC1−/− MEFs; TSC-1 deficient cells, 4-PBA treatment
  glucose starvation induced CHOP transcription: significantly reduced
TSC-2−/− cells; 100 nM insulin 5 minutes
  insulin induced IRS-1 tyrosine phosphorylation: improved
  insulin induced IRS-2 tyrosine phosphorylation: improved
TSC-2−/− cells; 100 nM insulin 15 minutes
  insulin induced Akt phosphorylation: improved
TSC-2−/− cells
  protein levels of IRS-1: increase
IRS-1 [2]
  period until IRS-1 protein levels become undetectable after cycloheximide addition: up to 4 hours
TSC1−/− cells; TSC-1−/− cells, 4-PBA treatment
  Glucose starvation induced PARP and caspase-3 cleavage: blocked

## C[C@H](CCC(=O)NCCS(=O)(=O)O)[C@H]1CC[C@H]2[C@@H]3[C@@H](O)C[C@@H]4C[C@H](O)CC[C@]4(C)[C@H]3CC[C@]12C [TUDCA, tauroursodeoxycholic acid]
ER stress
  ER stress in animals (phosphorylation of PERK, activation of JNK, phosphorylation of IRE-1α): regulate ER stress

## C/C=C(/C)C(=O)O[C@H]1C(C)=C2[C@H]([C@@H]1OC(=O)CCCCCCC)[C@@](C)(OC(C)=O)C[C@H](OC(=O)CCC)[C@@]1(O)[C@H]2OC(=O)[C@@]1(C)O [thapsigargin]
TSC2−/− MEFs; TSC2-deficient cells
  splicing of XBP-1 mRNA (UPR activation): increased
TSC2−/− cells; TSC2−/− cells, thapsigargin, after 6 hours
  apoptosis: massive apoptosis
TSC2−/− cells; TSC-2−/− cells, induction of ER stress
  PARP and caspase-3 cleavage: increased
Wild type control cells
  UPR activation: not activated
[3]; no liver hemangiomas in vehicle treated group
  tunnel positivity in liver hemangiomas: Increased
[3]; ~1 year old TSC-2+/− mice, after 7 days
  tunnel assay positive cells in kidney adenomas: clear up-regulation
IRS-1 [4]; [7]
  ubiquitination of IRS-1: severe ubiquitination
IRS-1 [4]; eight hour stimulation in the presence of MG132
  ubiquitination of IRS-1: ubiquitination
IRS-1 [4]
  degradation of IRS-1: degradation of IRS-1
TSC1−/− MEFs; TSC1-deficient cells
  splicing of XBP-1 mRNA (UPR activation): increased
Wild-type control cells
  apoptosis: no apoptosis
TSC1−/− cells; TSC1−/− cells after thapsigargin treatment, compared with controls
  cleaved caspase-3 or PARP cleavage: significantly induced
TSC1−/− cells; TSC1−/− cells, thapsigargin 10 nM, after 6 hours
  apoptosis: massive apoptosis

## tunicamycin
TSC2−/− MEFs; TSC2-deficient cells
  splicing of XBP-1 mRNA (UPR activation): increased
Wild type control cells
  UPR activation: not activated
IRS-1 [4]; [7]
  ubiquitination of IRS-1: severe ubiquitination
IRS-1 [4]
  degradation of IRS-1: degradation of IRS-1
TSC1−/− MEFs; TSC1-deficient cells
  splicing of XBP-1 mRNA (UPR activation): increased
